From patent publication US5637624A, “Ring-substituted 2-amino-1,2,3,4-tetrahydronaphthalenes and 3-aminochromanes” (Eli Lilly and Company, priority 1993, dated 1997)
Structures can show the parent of a compound that is named as a salt. Where two headings read alike, the source gives them in different places.

Columns and labels:
5-HT1A receptors = molecular target: T1, 5-HT1A receptors (Rattus norvegicus, UniProt P19327); experiment: Inhibition of 3H-8-OH-DPAT binding at 5-HT1A in vitro (rat cerebral cortex synaptosomal membranes); set-up: species or system Male Sprague-Dawley rats (cerebral cortex)
T1 construct: synaptosomal membranes isolated from cerebral cortex; from tissue; host or cells: cerebral cortex of male Sprague-Dawley rats, crude synaptosomal membranes
T1 sequence (P19327 1-422): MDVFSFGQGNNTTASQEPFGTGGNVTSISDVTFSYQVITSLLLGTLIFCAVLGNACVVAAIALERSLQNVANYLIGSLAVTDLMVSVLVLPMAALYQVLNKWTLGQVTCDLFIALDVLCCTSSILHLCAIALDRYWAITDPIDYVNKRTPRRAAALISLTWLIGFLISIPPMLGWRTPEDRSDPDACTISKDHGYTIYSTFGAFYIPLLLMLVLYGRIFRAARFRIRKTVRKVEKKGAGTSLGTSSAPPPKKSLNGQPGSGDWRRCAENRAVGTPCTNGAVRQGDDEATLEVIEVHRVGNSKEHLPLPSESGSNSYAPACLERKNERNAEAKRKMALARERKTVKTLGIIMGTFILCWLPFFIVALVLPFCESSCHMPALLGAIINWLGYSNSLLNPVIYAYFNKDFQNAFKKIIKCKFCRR
Experimental: This general procedure is set forth in Wong et al., J. Neural Transm. 71:207-218 (1988).
Male Sprague-Dawley rats (110-150 g) from Harlan Industries (Cumberland, Ind.) were fed a Purina Chow ad libitum for at least 3 days before being used in the studies. Rats were killed by decapitation. The brains were rapidly removed, and the cerebral cortices were dissected out at 4° C.
Brain tissues were homogenized in 0.32M sucrose. After centrifugation at 1000×g for 10 min and then at 17000×g for 20 min, a crude synaptosomal fraction was sedimented. The pellet was suspended in 100 vol of 50 mM Tris-HCl, pH 7.4, incubated at 37° C. for 10 min, and centrifuged at 50000×g for 10 min. The process was repeated and the final pellet was suspended in ice-chilled 50 mM Tris-HCl, pH 7.4. By the radioligand binding method, sites specifically labeled by tritiated 8-hydroxy-2-dipropylamino1,2,3,4-tetrahydronaphthalene (^3 H-8-OH-DPAT) have been identified as 5-HT1A receptors.
Binding of (hu 3H-8-OH-DPAT) was performed according to the previously described method [Wong et. al., J. Neural Transm. 64:251-269 (1985)]. Briefly, synaptosomal membranes isolated from cerebral cortex were incubated at 37° C. for 10 min. in 2 ml of 50 mM Tris-HCl, pH 7.4; 10 μM pargyline; 0.6 mM ascorbic acid; and 0.4 nM ^3 H-8-OH-DPAT. Binding was terminated by filtering samples under reduced pressure through glass fiber (GFB) filters. The filters were washed twice with 5 ml of ice cold buffer and placed in scintillation vials with 10 ml of PCS (Amersham/Searle) scintillation fluid. Radioactivity was measured with a liquid scintillation spectrometer. Unlabeled 8-OH-DPAT at 10 μM was also included in separate samples to establish non-specific binding. Specific binding of ^3 H-8-OH-DPAT is defined as the difference of radioactivity bound in the absence and in the presence of 10 μM unlabeled 8-OH-DPAT.

[1] = system: 5-hydroxyindoleacetic acid (5-HIAA), a metabolite of 5-HT, in whole brain; experiment: Effectiveness by oral administration: decrease in brain concentration of 5-HIAA; assay type: in vivo, male Sprague-Dawley rats; settings: p.o.; for minimal effective dose: Rattus norvegicus, po, 2 h, read-out: minimum effective dose when administered orally; for Percent Reduction over Control (5-HIAA) / 5-HIAA Concentration in Whole Brain: 2 hours; for 5-HIAA Concentration in Whole Brain: control 1.67 ± 0.08
Experimental: The activity of compounds of this invention when administered orally was determined and compared with literature compounds structurally related to the compounds of this invention. Thus, the test compound was administered to male Sprague-Dawley rats orally (p.o.), five rats being used in each test group. The rats were sacrificed two hours following p.o. administration, and the brain concentration of 5-hydroxyindoleacetic acid (5-HIAA), a metabolite of 5-HT, was measured.

[2] = Effectiveness by subcutaneous (s.c.) administration; assay type: in vivo; settings: for minimal effective dose: sc, read-out: minimum effective dose when administered subcutaneously
[3] = Hygroscopicity observed on isolation of the salt; assay type: physicochemical; settings: fumarate salt, recrystallized from ethanol/diethyl ether
Experimental: To a solution of water (60 mL) which contains methanesulfonic acid (0.16 mL, 2.33 mMol) was added 2-di-propylamino-8-methylthio-1,2,3,4-tetrahydronaphthalene (630 mg, 2.33 mMol). To this solution was added a solution of sodium metaperiodate (550 mg, 2.57 mMol) in water (10 mL), and the reaction mixture was stirred for two days at room temperature. The reaction mixture was made basic (NH4 OH) and extracted with dichloromethane. The organic extracts were combined, dried (Na2 SO4) and concentrated in vacuo to give the crude title compound as a light yellow oil. Purification by flash chromatography (3% methanol in dichloromethane+tr. NH4 OH) gave the desired product (580 mg, 85%) as a colorless oil. The fumarate salt was formed. […] Drying in a vacuum dessicator (60° C., 18 hours) gave a colorless glass (260 mg, m.p. =63° C.).

Compound: CSc1cccc2c1CC(N(C)C)CC2 (stereo not drawn) [Example 7, 2-Dimethylamino-8-thiomethyl-1,2,3,4-tetrahydronaphthalene]
- IC50 (5-HT1A receptors): 21 nM

Compound: CCCN(CCC)C1CCc2cccc(SCc3ccccc3)c2C1 (stereo not drawn) [Example 4, 2-Di-n-propylamino-8-thiobenzyl-1,2,3,4-tetrahydronaphthalene]
- IC50 (5-HT1A receptors): 2.8 nM

Compound: CCCN(CCC)C1CCc2cccc(SCC)c2C1 (stereo not drawn) [Example 2, 2-Di-n-propylamino-8-thioethyl-1,2,3,4-tetrahydronaphthalene]
- IC50 (5-HT1A receptors): 30.7 nM

Compound: CCCN(CCC)C1CCc2cccc(SC)c2C1 (stereo not drawn) [Example 1, 2-Di-n-propylamino-8-thiomethyl1,2,3,4-tetrahydronaphthalene]
- IC50 (5-HT1A receptors): 0.3 nM
- minimal effective dose [1]: ~1 mg/kg
- Percent Reduction over Control (5-HIAA) ([1]; 0.1 mg/Kg): 0%
- 5-HIAA Concentration in Whole Brain ([1]; 0.1 mg/Kg): 1.56 ± 0.04 nmol/g
- Percent Reduction over Control (5-HIAA) ([1]; 1 mg/Kg): 13%
- 5-HIAA Concentration in Whole Brain ([1]; 1 mg/Kg): 1.45 ± 0.03 nmol/g
- Percent Reduction over Control (5-HIAA) ([1]; 10 mg/Kg): 25%
- 5-HIAA Concentration in Whole Brain ([1]; 10 mg/Kg): 1.25 ± 0.06 nmol/g
- minimum effective dose relative to 8-OH-DPAT, oral ([1]; vs 8-OH-DPAT): about ten-fold less
- minimal effective dose [2]: ~0.3 mg/kg
- potency relative to 8-OH-DPAT, subcutaneous ([2]; vs 8-OH-DPAT): about ten-fold less potent

Compound: CCCN(CCC)[C@@H]1CCc2cccc(SC)c2[C@@H]1C (relative stereo) [Example 8, cis-1-Methyl-2-di-n-propylamino-8-thiomethyl-1,2,3,4-tetrahydronaphthalene]
- IC50 (5-HT1A receptors; 0.4 nM 3H-8-OH-DPAT, rat cerebral cortex synaptosomal membranes, 37° C., 10 min, pH 7.4, read-out: IC50, 5HT1a (concentration required to inhibit the binding of 3H-8-OH-DPAT by 50%)): 297 nM

Compound: CCCN(CCC)C1CCc2cccc(Sc3ccccn3)c2C1 (stereo not drawn) [Example 10]
- IC50 (5-HT1A receptors): 9 nM

Compound: CCCN(CCC)C1COc2cccc(SC)c2C1 (stereo not drawn) [Example 11, 3-(Di-n-propylamino)-5-methylthio-chromane hydrochloride]
- IC50 (5-HT1A receptors): 2.5 nM

Compound: CCCN(CCC)C1CCc2cccc(Sc3ccccc3)c2C1 (stereo not drawn) [Example 3, 2-Di-n-propylamino-8-thiophenyl-1,2,3,4-tetrahydronaphthalene]
- IC50 (5-HT1A receptors): 22.2 nM

Compound: CCCN(CCC)C1CCc2cccc(S(C)(=O)=O)c2C1 (stereo not drawn) [Example 6, 2-Di-n-propylamino-8-methylsulfonyl-1,2,3,4-tetrahydronaphthalene]
- IC50 (5-HT1A receptors): 10 nM

Compound: CCCN(CCC)C1CCc2cccc(Sc3ccc(C)cc3)c2C1 (stereo not drawn) [Example 9]
- IC50 (5-HT1A receptors): 59 nM

Compound: CCCN(CCC)C1CCc2cccc([S+](C)[O-])c2C1 (stereo not drawn) [Example 5, 2-Di-n-propylamino-8-methylsulfinyl-1,2,3,4-tetrahydronaphthalene]
- IC50 (5-HT1A receptors): 71.1 nM
- hygroscopicity [3]: extremely hygroscopic

Compound: CCCN(CCC)C1CCc2cccc(O)c2C1 (stereo not drawn) [Example 8-OH-DPAT, 8-hydroxy-2-dipropylamino1,2,3,4-tetrahydronaphthalene, reference compound]
- minimal effective dose [1]: ~10 mg/kg
- Percent Reduction over Control (5-HIAA) ([1]; 0.1 mg/Kg): 0%
- 5-HIAA Concentration in Whole Brain ([1]; 0.1 mg/Kg): 1.62 ± 0.07 nmol/g
- Percent Reduction over Control (5-HIAA) ([1]; 1 mg/Kg): 0%
- 5-HIAA Concentration in Whole Brain ([1]; 1 mg/Kg): 1.75 ± 0.05 nmol/g
- Percent Reduction over Control (5-HIAA) ([1]; 10 mg/Kg): 16%
- 5-HIAA Concentration in Whole Brain ([1]; 10 mg/Kg): 1.40 ± 0.06 nmol/g
- minimal effective dose [2]: ~0.03 mg/kg
